Results on one compound are retold here after patent US9067894B1, “Compound, composition, and method of activating GIRK potassium channel and use of same for treating conditions of interest” (Vanderbilt University, priority 2013, dated 2015).

One experiment deals with T1, GIRK1/2 (Homo sapiens, UniProt P48051+P48549).
T1 sequence (P48549 1-501): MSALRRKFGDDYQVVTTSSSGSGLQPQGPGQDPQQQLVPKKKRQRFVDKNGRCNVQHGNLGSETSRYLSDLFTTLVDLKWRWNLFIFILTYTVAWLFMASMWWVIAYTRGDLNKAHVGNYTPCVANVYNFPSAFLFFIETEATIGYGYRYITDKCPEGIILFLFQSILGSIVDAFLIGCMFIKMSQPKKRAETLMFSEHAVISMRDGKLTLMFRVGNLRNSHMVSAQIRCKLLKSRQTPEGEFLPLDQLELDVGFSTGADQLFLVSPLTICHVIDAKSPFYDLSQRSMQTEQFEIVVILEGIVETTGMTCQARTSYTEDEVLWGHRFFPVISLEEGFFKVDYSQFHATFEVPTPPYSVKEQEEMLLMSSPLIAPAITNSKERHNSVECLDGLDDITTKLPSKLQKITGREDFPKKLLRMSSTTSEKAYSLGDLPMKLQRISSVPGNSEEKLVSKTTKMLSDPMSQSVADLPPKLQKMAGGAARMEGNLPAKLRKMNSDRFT
T1 sequence (P48051 1-423): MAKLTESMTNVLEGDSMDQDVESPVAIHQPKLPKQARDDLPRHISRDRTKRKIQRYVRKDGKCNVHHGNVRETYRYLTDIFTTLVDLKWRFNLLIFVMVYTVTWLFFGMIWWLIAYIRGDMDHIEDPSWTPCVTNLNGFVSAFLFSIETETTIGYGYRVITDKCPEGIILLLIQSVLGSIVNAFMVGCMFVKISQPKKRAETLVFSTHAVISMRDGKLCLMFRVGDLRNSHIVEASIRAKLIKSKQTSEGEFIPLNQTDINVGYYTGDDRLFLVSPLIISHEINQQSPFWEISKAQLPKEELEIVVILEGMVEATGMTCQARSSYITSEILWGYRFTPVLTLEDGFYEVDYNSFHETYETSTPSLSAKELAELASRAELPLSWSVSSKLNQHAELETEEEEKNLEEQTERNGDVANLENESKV
Kind of experiment: Thallium flux assay, HEK-293 cells expressing GIRK1/2. It counts as cell-based. Also noted: host or cells: HEK-293. Conditions: cell line GIRK1-2; average ± SEM; read-out: EC50 Thallium Flux. From the text: Cell Line Construction and Cell Culture. HEK-293 cells co-expressing human GIRK1/2 and rat mGlu8 were generated as previously described (Niswender et al., 2008). A HEK-293 cell line (ATCC, Manassas, Va.) expressing human GIRK1 and human GIRK2 was constructed by transfecting HEK-293 cells with GIRK1 and GIRK2 (Origene, Rockville, Md.) cloned into the pBudCE4.1 vector (Life Technologies, Carlsbad, Calif.) using FuGene 6 (Promega, Madison, Wis.) transfection reagent. Unless otherwise noted, other ion channel-expressing cells were prepared by transfecting HEK-293 cells with individual or combinations of subunits: GIRK1, pCMV6-A-BSD; GIRK2, pCMV6-A-puro; GIRK3, pCMV6-A-hygro; GIRK4, pCMV6-A-AC; Kv7.4, pIRESneo3. The Kir2.1 and hERG-expressing cell lines were made by transfecting T-REx-293 cells (Life Technologies, Carlsbad, Calif.) with Kir2.1 and Kv11.1, respectively, cloned into pcDNA5TO. Monoclonal cell lines were produced by limiting-dilution cloning of antibiotic-resistant cells and functional selection using the thallium flux assay described below. Unless otherwise noted, cells were maintained in Minimal Essential Medium, Alpha Medium (Mediatech, Manassas, Va.) supplemented with 10% fetal bovine serum (Sigma-Aldrich, Saint Louis, Mo.) and GlutaGro (Mediatech, Manassas, Va.), referred to henceforth as cell culture medium. […]

The next experiment has as its target T2, Adrenergic β2 (Homo sapiens, UniProt P07550).
T2 construct: Ricerca
The experiment is described as follows: Radioligand displacement (Ricerca). The format is binding.

For experiment [1], the target named is T3, Glutamate (NMDA, glycine) (Rattus norvegicus, UniProt P35439).
T3 construct: Ricerca
Kind of experiment: Radioligand displacement (Ricerca). It counts as binding.

Experiment [2] deals with L-Type Ca channel (benzothiazepine). Kind of experiment: Radioligand displacement (Ricerca). The format is binding, rat. Conditions: 10 μM. (Loss of bound radioactivity is the signal in a displacement assay; it reports binding, not function.)

The structures appear in SMILES notation.

T2 sequence (P07550 whole entry): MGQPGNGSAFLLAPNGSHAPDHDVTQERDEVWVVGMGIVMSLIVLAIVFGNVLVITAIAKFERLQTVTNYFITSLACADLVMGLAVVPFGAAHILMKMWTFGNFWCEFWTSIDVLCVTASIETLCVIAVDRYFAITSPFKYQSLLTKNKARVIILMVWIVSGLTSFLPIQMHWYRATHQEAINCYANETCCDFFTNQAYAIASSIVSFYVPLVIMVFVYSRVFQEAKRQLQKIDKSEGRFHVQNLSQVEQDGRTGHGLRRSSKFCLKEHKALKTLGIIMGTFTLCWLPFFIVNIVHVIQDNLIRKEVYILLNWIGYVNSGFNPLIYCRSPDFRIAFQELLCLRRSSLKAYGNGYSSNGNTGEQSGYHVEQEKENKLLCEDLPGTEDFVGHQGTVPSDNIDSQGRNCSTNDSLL

By EC50 is commonly meant the concentration needed to bring the measured effect to its halfway point. A word on the inhibition: it is the change of the read-out against control, counted positive when it falls. By % Inhibition is commonly meant the relative decrease from the control value, in per cent. Read a low % Inhibition as little suppression. `Cc1cc(NC(=O)Nc2ccc(F)c(F)c2)n(-c2ccccc2)n1` [VU0456810, 1-(3,4-difluorophenyl)-3-(3-methyl-1-phenyl-1H-pyrazol-5-yl)urea]: on GIRK1/2, the EC50 is 0.162 ± 0.089 µM. Besides, the results for the inhibition at 10 µM (at Adrenergic β2; in experiment [1]) were -5% and -25%, respectively. Besides, the “% Inhibition” value in experiment [2] worked out at 1%.
